1 compound from patent US5348962A, “Hydroxyquinolone derivatives compounds which have pharmaceutical utility” (Merck Sharpe & Dohme Ltd., priority 1990, dated 1994) can be followed below.

Each structure is given as a SMILES string.

The subject of the test is AMPA receptor. Kind of test: Cortical slice studies: responses to AMPA in rat cortical slice. Type of test: cell-based. The settings on record: from righthand shift in AMPA concentration-response curves, read-out: apparent equilibrium constant (Kb) in response to AMPA. As for the experimental part:
The compounds useful in this invention potently and selectively block responses to NMDA and/or AMPA in a brain slice from rat cortex, and inhibit the binding of agonists and antagonists to the strychnine-insensitive site present on the NMDA receptor and/or AMPA binding to rat forebrain membranes.
The effects of compounds of the invention on responses to NMDA and AMPA were assessed using the rat cortical slice as described by Wong et al., Proc. Natl. Acad. Sci. USA, 1986, 83, 7104. The apparent equilibrium constant (Kb) was calculated from the righthand shift in the NMDA or AMPA concentration-response curves produced by the compound under test.

On to `O=c1[nH]c2cc([N+](=O)[O-])ccc2c(O)c1-c1ccccc1` [Example 12, 4-Hydroxy-7-nitro-3-phenyl-2(1H)-quinolone], for which the Kb was < 150 µM.
